These are literature values, as cited in US20020028759A1, “Detergent compositions” (Unilever Home & Personal Care USA, Division of Conopco, Inc., priority 1999, published 2002).

SMILES strings stand for the structures. Read-outs that look alike come from different tables or passages of the source. A value given as a limit tells only on which side of the number the result lay.

For the data set the following is noted: 20° C.
[1] abbreviates: other common materials, by contrast.

Turning to `O=BO[O-].[Na+]` [Sodium perborate anhydrous], the “Water Solubility (g/100 g)” value under setting [1] is 3.7 g/100 g.
For `O=P(O)(O)OP(=O)(O)OP(=O)(O)O` [Sodium tripolyphosphate anhydrous], under setting [1], the “Water Solubility (g/100 g)” value is reported as 15 g/100 g.
With `NC(N)=O` [Urea], the “Water Solubility (g/100 g)” value (highly water-soluble materials) is given as >100 g/100 g.
